Measurements reported in patent publication EP4389111A1, “METHOD OF PREPARATION OF C[…] […] AND C[…] […]” (Aero-Bw K. Domagala Sp. Jawna, priority 2022, dated 2024).
Several values for one entry are separate records, joined by “and”; a condition that tells them apart may be missing. Identical values can stand only once.

Test system: Salmonella typhimurium TA98
Assay: Ames test, strain TA98 (reading frame shift)
Format: cell-based
Conditions: positive control at 2 µg/mL
From the text: The test allows the identification of substances that cause mutations such as reading frame shifts or base pair substitutions. The test uses modified strains of Salmonella typhimurium bacteria carrying mutations in the operon of the gene encoding the amino acid histidine.
The aim of the study was to assess the mutagenic potential of three extracts obtained from stem cells using two strains of Salmonella typhimurium carrying two types of mutations: TA 98—reading frame shift and TA 100—base pair substitution.
The experimental procedure was carried out basing on the manufacturer's experimental protocol (Xenometrix).

With O=[N+]([O-])c1ccc2c(c1)Cc1ccccc1-2 [Extract 2-NF, 2-nitrofluorene] the “MOI (Multiplicity of induction compared to baseline)” value was 6.9 and 5.6.
